# Test results reported in patent publication US20120302614A1, “METHOD FOR IMPROVING CEREBRAL CIRCULATION OR TREATING A CEREBRAL BLOOD FLOW DISORDER” (OSAKA UNIVERSITY, priority 2007, published 2012).
# Entries after “also recorded” stand apart in the source; their conditions may differ.
# Tests used:
# [1] = test system: Aβ injection model (Aβ 1-40 administered intracerebroventricularly); experiment: Morris water maze test in Aβ injection model, Test Example 1; format: in vivo, ddY mouse; details: oral administration for four weeks in advance of Aβ 1-40
# Experimental: The therapeutic effect of olmesartan medoxomil in Aβ injection model and the dose dependency thereof were examined according to the following experimental schedule. [Experimental Schedule]: Prior to the experiment, 8-week old male ddY mice were administered olmesartan medoxomil (0.5 mg/kg/day, 1 mg/kg/day, 3 mg/kg/day or 6 mg/kg/day) or distilled water orally for four weeks (day −28 to −1). Then, Aβ 1-40 was administered to the mice intracerebroventricularly (day 0). (Although Aβ 1-40 was administered into one of the lateral ventricles in WO 2006/059777, Aβ 1-40 was administered in Test Example 1 to both lateral ventricles with an interval of one day between two administrations. Except for this point, Aβ 1-40 administration was performed in the same manner as in WO 2006/059777.) From one week thereafter, a behavioral test to evaluate cognitive function (Morris water maze test; Morris R et al., J Neuroscience Methods 1984, 11, 47-60) was performed (day 7 to 12). As a negative control, mice which had received oral administration of distilled water for four weeks were administered Aβ 40-1 intracerebroventricularly. The administration of olmesartan medoxomil or distilled water was continued until the end of the behavioral test. Measurements were performed as described below. • Hidden platform test: A platform is placed below the water surface of a water pool 150 cm in diameter filled with white water-colored. Mice are released into the water, and the time it takes them to reach the platform is measured. This trial is performed three times a day and for five consecutive days. As they learn, mice become able to reach the platform more quickly day by day. • Visible platform test: Mice are released into the water under such conditions that they can see the platform. The time it takes them to reach the platform is measured. • Probe test: The platform is removed, and mice are released and allowed to swim freely. Those mice with good learning/memory swim in the quadrant where the platform was located searching for the platform. The time they spent in that quadrant is measured. • Annnulus crossing: The number of times mice crossed the platform in the probe test is counted.
# [2] = test system: hippocampus (CA1/Schaffer collaterals) of Aβ40-injected mice; experiment: Long-term potentiation in hippocampal slices, Test Example 3; format: in vivo, mouse; details: Aβ40-injected mice with or without treatment
# Experimental: (§1) • Electrophysiology: Long term potentiation was measured as previously reported (Niisato K, Fujikawa A, Komai S, Shintani T, Watanabe E, Sakaguchi G, Katsuura G, Manabe T, Noda M: Age-dependent enhancement of hippocampal long-term potentiation and impairment of spatial learning through the Rho-associated kinase pathway in protein tyrosine phosphatase receptor type Z-deficient mice. J Neurosci 2005; 25:1081-1088). Transverse hippocampal slices (400 μm thick) were prepared from 5- to 10-week-old mice or from 13- to 31-week-old mice and placed in an interface-type holding chamber for at least 1 hr. […] For the analysis of EPSPs, the inventors measured their early rising phase in order to avoid contamination by voltage-dependent components as much as possible. […] The data are expressed as mean±SEM. […] Cerebral blood flow (CBF) was continuously monitored at the site of perfusion with a laser-Doppler probe positioned stereotaxically on the cortical surface and connected to a computerized data acquisition system. CBF values were expressed as percent increase relative to the resting level. Zero values for CBF were obtained after the heart was stopped by an overdose of isoflurane at the end of the experiment. • Effect of topical application of Aβ40 on functional hyperemia: The cranial window was first perfused with Ringer's solution, and CBF responses to whisker stimulation were recorded. […]
# Aβ-injected mice [3] = experiment: Cerebral blood flow response to whisker stimulation (functional hyperemia), Test Example 3; format: in vivo, mouse; details: Aβ-injected mice with or without treatment
# Experimental: as §1
# Aβ-injected mice [4] = experiment: Cerebrovascular autoregulation (CBF versus MAP), Test Example 3; format: in vivo, mouse; details: Aβ-injected mice with or without treatment
# Experimental: as §1
smiles,measurement,setting,value
"CCCc1nc(C(C)(C)O)c(C(=O)O)n1Cc1ccc(-c2ccccc2-c2nnn[nH]2)cc1 [olmesartan, 4-(1-hydroxy-1-methylethyl)-2-propyl-1-[4-[2-(tetrazol-5-yl)phenyl]phenyl]methylimidazole-5-carboxylic acid]","cognitive impairment (spatial memory and learning) in Morris water maze test, overall",[1],ameliorated
same,"long-term potentiation (LTP) in hippocampus, field potential slope after tetanic stimulation",[2],recovery of LTP
same,Aβ-induced impairment in neurovascular coupling (CBF response to whisker stimulation),Aβ-injected mice [3],improved; also recorded: recovery of neurovascular coupling
same,cerebrovascular autoregulation impaired by Aβ (relation between CBF and MABP),Aβ-injected mice [4],recovered
